For the experiment, the system named is 521955-158-R2-J5-PDC complex spheroid viability. The experiment in a line: Anticancer human tumor 521955-158-R2-J5-PDC patient-derived pancreatic carcinoma cell line growth inhibition [GQUAD]. The conditions noted are these: for viability, T/C: stronger effect = lower value; for IC50: curve of compound. An excerpt: DNA G-quadruplex Stabilizer Agents in Combinations in Complex Spheroids
A high-throughput screen of multi-cell type tumor spheroids was designed to identify active combinations of DNA G-quadruplex stabilizer agents and targeted small molecules. Complex spheroids include a stromal component modeled by human endothelial cells (HUVEC) and fibroblasts modeled by human mesenchymal stem cells (MSCs). The concentration ranges selected for each drug and investigational agent were based upon clinically achievable concentrations if the clinical Cmax of the agent was known.
Compounds. The drugs and investigational agents: pidnarulex (CX-5461; NSC782164), APTO-253 (NSC789042), BRACO-19 (NSC847499), peposertib (NSC802822), ceralasertib (NSC780249), elimusertib (NSC800525), camonsertib (NSC841442), AZD-1390 (NSC803789), olaparib (NSC753686), talazoparib (NSC767125), ART-558 (NSC835418), sotorasib (NSC818433), MRTX-1133 (NSC836407), SN-38 (NSC673596), topotecan (NSC609699), etoposide (NSC141540), doxorubicin (NSC123127), gemcitabine (NSC613327), 5-fluorouracil (NSC19893), paclitaxel (NSC125973), vemurafenib (NSC761431), panobinostat (NSC761190), R-306465 (JNJ-16241199; NSC773264), adavosertib (NSC754352), TP-3654 (NSC805149), carboplatin (NSC241240), KSQ-4279 (NSC840948), and staurosporine (NSC755774) were obtained from the National Cancer Institute (NCI) Developmental Therapeutics Program Chemical Repository (34). The FDA-approved anticancer drug set is available from the NCI Developmental Therapeutics Program. […] The stock solutions were prepared in dimethyl sulfoxide (DMSO, Sigma-Aldrich, St. Louis, MO, cat. D2650) at 800-fold the tested concentration and stored at -70 degrees C prior to their use. All drugs and investigational agents were tested over a range starting from a high concentration at or near the clinical Cmax and decreasing in half-log increments. If the clinical Cmax for an agent had not been determined, the highest concentration tested was 10 microM.
2.3 Cell Culture. All cells were maintained in an incubator at 37 degrees C and 5% CO2 with 95% humidity. The PDC lines were cultured according to standard operating procedures established by the NCI PDMR. All PDCs were thawed and cultured in Matrigel-coated flasks prepared with a working solution of 1X Ham's F-12 nutrient mix, without supplementation (Invitrogen, cat. 11765054), 100 U/mL penicillin-streptomycin (Invitrogen, cat. 15140122), and 2.5% Matrigel (Corning Inc., cat. 354248) for the first three passages. The 857933-349-R-J2-PDC line was cultured in 6C/Colon 1B media, which includes advanced DMEM/F-12 (Thermo Fisher Scientific, cat. 12634028), 10 mM HEPES (Thermo Fisher Scientific, cat. 15630080), 1X GlutaMAX supplement (Thermo Fisher Scientific, cat. 35050061), 0.1 mg/mL primocin (InvivoGen, cat. ant-pm-2), 10% defined fetal bovine serum, heat inactivated (HyClone Laboratories Inc., cat. SH30070.03HI), 50% L-WRN conditioned media (ATCC, cat. CRL-3276), 1.25 mM N-Acetyl-L-cysteine (Sigma-Aldrich, cat. A9165), 10 mM nicotinamide (Sigma-Aldrich, cat. N0636), 1X B-27 supplement (Thermo Fisher Scientific, cat. 17504044), 1X N-2 supplement (Thermo Fisher Scientific, cat. 17502048), 10 microM Y-27632 dihydrochloride (Tocris Bioscience, cat. 1254), and 50 ng/mL human EGF recombinant protein (Thermo Fisher Scientific, cat. PHG0311). The 485176-168-R4-J1-PDC line was cultured in Panc media, which includes all 6C/Colon 1B media components plus 100 ng/mL human FGF-10 (Thermo Fisher Scientific, cat. 100-26), 500 nM SB-431542 (Selleckchem, cat. S1067), and gastrin (Tocris, cat. 3006).
[…]

Where “and” joins values, the source holds several entries; their conditions need not be identical. Equal values may be shown once.
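Note: spheroids exposed to agents for one week before reading.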
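Throughout, for viability, T/C: 100% = DMSO vehicle control viability.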

With `Cc1cccc(N(C)C(=O)C2C(O)CCN2c2nc(C)cc(C(F)(F)F)c2C#N)c1` (centres undefined), the IC50 was greater than 10000 nM. Moreover, the viability, T/C (compound 0.0316 µM) is 120% and 113% and 96.8%. Moreover, the viability, T/C (compound 0.1 µM) was 86.4% and 98.3% and 105%. For the same compound, the viability, T/C (compound 0.316 µM) was 90% and 104% and 107%. For the setting “compound 1 µM”, the viability, T/C was 98.8% and 98.2% and 100%. Further, the viability, T/C (compound 3.16 µM) was 120% and 115% and 123%. Further, the viability, T/C (compound 10 µM) is 118% and 110% and 140%.

`Nc1ccn(C2OC(CO)C(O)C2(F)F)c(=O)n1` (centres undefined): the 50% inhibitory concentration (IC50) is 524 nM and 534 nM and 518 nM. The viability, T/C (compound 0.0316 µM) was 95.8% and 80% and 84.4%. Besides, the viability, T/C (compound 0.1 µM) is 86% and 65.7% and 69.4%. Further, the viability, T/C (compound 0.316 µM) was 75.9% and 57.5% and 71%. Besides, the viability, T/C (compound 1 µM) is 17% and 46.2% and 22.6%. In addition, the viability, T/C (compound 3.16 µM) is 9.14% and 18.9% and 7.37%. For the same compound, the viability, T/C (compound 10 µM) was 8.29% and 13.5% and 6.71%.

Take `C#Cc1c(F)ccc2cc(O)cc(-c3ncc4c(N5CC6CCC(C5)N6)nc(OCC56CCCN5CC(F)C6)nc4c3F)c12` (centres undefined): the viability, T/C was 40.9% and 72.8% and 65.6% (compound 0.0316 µM); 32.6% and 85% and 56.9% (compound 0.1 µM); 31.2% and 57.2% and 57.9% (compound 0.316 µM); 24.3% and 54.7% and 39.5% (compound 1 µM); 27.9% and 53.1% and 48.7% (compound 3.16 µM); 17.8% and 37.3% and 35.5% (compound 10 µM).

Turning to `COc1cc(C2c3cc4c(cc3C(OC3OC5COC(C)OC5C(O)C3O)C3COC(=O)C23)OCO4)cc(OC)c1O` (centres undefined), the IC50 was 616 nM and 427 nM and 1250 nM. Besides, for the setting “compound 0.0316 µM”, the viability, T/C is 95.5% and 105% and 91.1%. Moreover, the viability, T/C (compound 0.1 µM) was 66.3% and 70.6% and 95%. Also, the viability, T/C (compound 0.316 µM) is 79.4% and 67% and 81.2%. Besides, under “compound 1 µM”, the viability, T/C is 29% and 29.6% and 53.9%. For the same compound, the viability, T/C (compound 3.16 µM) was 14.7% and 15.7% and 30.7%. The viability, T/C (compound 10 µM) was 10.9% and 9.42% and 17.9%.

As for `Cn1ncnc1[C@H]1c2n[nH]c(=O)c3cc(F)cc(c23)N[C@@H]1c1ccc(F)cc1`, the IC50 was greater than 316 nM. For the same compound, where the note is “compound 0.000999 µM”, the viability, T/C was 94.9% and 94.7% and 84.8%. Moreover, the viability, T/C (compound 0.00316 µM) was 81.5% and 95.2% and 80.6%. For the same compound, the viability, T/C (compound 0.00999 µM) was 92.4% and 99.2% and 79.1%. Moreover, the viability, T/C (compound 0.0316 µM) was 78.9% and 94.1% and 78.3%. The viability, T/C (compound 0.0999 µM) was 86.8% and 89.5% and 85.8%. The viability, T/C (compound 0.316 µM) is 60.1% and 87.9% and 72.1%.

These data come from PubChem BioAssay AID2060495 (Molecular Pharmacology Branch, DTP, NCI, 2025).
